pIC50: −log10 of the molar value.
biological target: SOS1-KRAS (Homo sapiens, UniProt P01116, G12D); test: Inhibition of SOS1/KRAS G12D mutant (unknown origin) protein-protein interaction incubated for 3 hrs by HTRF analysis
Sequence (P01116 whole entry G12D, looked up): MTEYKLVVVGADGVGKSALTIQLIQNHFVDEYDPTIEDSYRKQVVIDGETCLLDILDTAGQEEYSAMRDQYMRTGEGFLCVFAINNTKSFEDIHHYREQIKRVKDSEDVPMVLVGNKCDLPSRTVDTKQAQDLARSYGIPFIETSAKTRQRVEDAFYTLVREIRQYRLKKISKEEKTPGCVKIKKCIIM

Row | pIC50 | SMILES
1 | < 6.60 | [2H]C([2H])(Oc1nc2c(c(N3CC4CCC(C3)N4)n1)CCN(c1cc(O)ccc1C(F)(F)F)C2)C12CCCN1CCC2
2 | < 7.30 | [2H]C([2H])(Oc1nc2c(c(N3CC4CCC(C3)N4)n1)CCN(c1cc(O)cc(Cl)c1C(F)(F)F)C2)C12CCCN1CCC2
3 | ≥ 7.30 | [2H]C([2H])(Oc1nc(N2CC3CCC2CN3)c2cnc(-c3cc(O)cc(Cl)c3C(F)(F)F)c(F)c2n1)C12CCCN1CCC2 (centres undefined)
4 | ≥ 7.30 | [2H]C([2H])(Oc1nc(N2CC3CCC(C2)N3)c2cnc(-c3cc(O)cc(Cl)c3C(F)(F)F)c(F)c2n1)C12CCCN1CCC2
